From paper PMC7162861, “Synthesis, cytotoxicity, pharmacokinetic profile, binding with DNA and BSA of new imidazo[1,2-a]pyrazine-benzo[d]imidazol-5-yl hybrids” (Scientific Reports, 2020)

What was measured:
EXVX = test: NCI cytotoxicity screen, Non-Small Cell Lung Cancer panel; assay type: cell-based; settings: Homo sapiens; EXVX; single dose 10 µM; negative = lethal; read-out: Percent growth inhibition
Protocol: (§1) Cytotoxicity was performed at National Cancer Institute (NCI), Bethesda, USA as per their protocols.

A549/ATCC = test: as above; assay type: cell-based; settings: Homo sapiens; A549/ATCC; single dose 10 µM; negative = lethal; read-out: Percent growth inhibition
Protocol: as §1

HOP-92 = test: as above; assay type: cell-based; settings: Homo sapiens, single dose 10 µM, negative = lethal, read-out: Percent growth inhibition
Protocol: as §1

HOP-62 = test: as above; assay type: cell-based; settings: Homo sapiens, single dose 10 µM, negative = lethal, read-out: Percent growth inhibition
Protocol: as §1

NCI-H460 = test: as above; assay type: cell-based; settings: Homo sapiens, single dose 10 µM, negative = lethal, read-out: Percent growth inhibition
Protocol: as §1

SK-MEL-5 = test: NCI cytotoxicity screen, Melanoma panel; assay type: cell-based; settings: Homo sapiens, single dose 10 µM, negative = lethal, read-out: Percent growth inhibition
Protocol: as §1

SK-MEL-28 = test: NCI cytotoxicity screen, Melanoma panel; assay type: cell-based; settings: Homo sapiens, single dose 10 µM, negative = lethal, read-out: Percent growth inhibition
Protocol: as §1

SK-MEL-2 = test: NCI cytotoxicity screen, Melanoma panel; assay type: cell-based; settings: Homo sapiens, single dose 10 µM, negative = lethal, read-out: Percent growth inhibition
Protocol: as §1

UACC-257 = test: NCI cytotoxicity screen, Melanoma panel; assay type: cell-based; settings: Homo sapiens, single dose 10 µM, negative = lethal, read-out: Percent growth inhibition
Protocol: as §1

MDA-MB-435 = test: NCI cytotoxicity screen, Melanoma panel; assay type: cell-based; settings: Homo sapiens, MDA-MB-435, read-out: Percent growth inhibition
Protocol: as §1

MALME-3M = test: NCI cytotoxicity screen, Melanoma panel; assay type: cell-based; settings: Homo sapiens; MALME-3M; single dose 10 µM; negative = lethal; read-out: Percent growth inhibition
Protocol: as §1

NCI-H226 = test: NCI cytotoxicity screen, Non-Small Cell Lung Cancer panel; assay type: cell-based, human; settings: Homo sapiens, single dose 10 µM, negative = lethal, read-out: Percent growth inhibition
Protocol: as §1

NCI-H23 = test: as above; assay type: cell-based, human; settings: Homo sapiens, single dose 10 µM, negative = lethal, read-out: Percent growth inhibition
Protocol: as §1

NCI-H322M = test: as above; assay type: cell-based, human; settings: Homo sapiens, single dose 10 µM, negative = lethal, read-out: Percent growth inhibition
Protocol: as §1

NCI-522 = test: as above; assay type: cell-based, human; settings: Homo sapiens; NCI-522; single dose 10 µM; negative = lethal; read-out: Percent growth inhibition
Protocol: as §1

PC-3 = test: NCI cytotoxicity screen, Prostate Cancer panel; assay type: cell-based, human; settings: Homo sapiens, single dose 10 µM, negative = lethal, read-out: Percent growth inhibition
Protocol: as §1

DU-145 = test: NCI cytotoxicity screen, Prostate Cancer panel; assay type: cell-based, human; settings: Homo sapiens, single dose 10 µM, negative = lethal, read-out: Percent growth inhibition
Protocol: as §1

RXF 393 = test: NCI cytotoxicity screen, Renal Cancer panel; assay type: cell-based; settings: Homo sapiens, single dose 10 µM, negative = lethal, read-out: Percent growth inhibition
Protocol: as §1

ACHN = test: NCI cytotoxicity screen, Renal Cancer panel; assay type: cell-based; settings: Homo sapiens, single dose 10 µM, negative = lethal, read-out: Percent growth inhibition
Protocol: as §1

UO-31 = test: NCI cytotoxicity screen, Renal Cancer panel; assay type: cell-based; settings: Homo sapiens, single dose 10 µM, negative = lethal, read-out: Percent growth inhibition
Protocol: as §1

A498 = test: NCI cytotoxicity screen, Renal Cancer panel; assay type: cell-based; settings: Homo sapiens, single dose 10 µM, negative = lethal, read-out: Percent growth inhibition
Protocol: as §1

SN12C = test: NCI cytotoxicity screen, Renal Cancer panel; assay type: cell-based; settings: Homo sapiens, single dose 10 µM, negative = lethal, read-out: Percent growth inhibition
Protocol: as §1

HT29 = test: NCI cytotoxicity screen, Colon Cancer panel; assay type: cell-based; settings: Homo sapiens, HT-29; HT29; single dose 10 µM; negative = lethal; read-out: Percent growth inhibition
Protocol: as §1

HCT-116 = test: NCI cytotoxicity screen, Colon Cancer panel; assay type: cell-based; settings: Homo sapiens, single dose 10 µM, negative = lethal, read-out: Percent growth inhibition
Protocol: as §1

HCT-15 = test: NCI cytotoxicity screen, Colon Cancer panel; assay type: cell-based; settings: Homo sapiens, single dose 10 µM, negative = lethal, read-out: Percent growth inhibition
Protocol: as §1

COLO 205 = test: NCI cytotoxicity screen, Colon Cancer panel; assay type: cell-based; settings: Homo sapiens, single dose 10 µM, negative = lethal, read-out: Percent growth inhibition
Protocol: as §1

[1] = Experimental log P, shake-flask method; assay type: physicochemical; settings: n-octanol/phosphate buffer pH 7.4, read-out: Exp. Log P
Protocol: Partition coefficients or experimental log P values of all synthesized compounds (9–23, 30 and 31) were calculated using the shake-flask method. Log P values were determined using n-octanol and phosphate buffer (pH = 7.4) at 10:1 ratio of volumes. Stock solutions (10^−3 M) of compounds were prepared in DMSO. Glass vials were used to make final solutions i.e. stock solution (250 µL) and phosphate buffer (125 µL). To record the absorbance, wavelength was selected based on λmax of the respective compound. Initial absorbance (Ai) for every compound was noted consuming the stock solution in the buffer phase. Now added n-octanol to every vial and shaken well using a mechanical shaker for 50 minutes. To get separation of both phases, glass vials were centrifuged for 35 min. at 2500 rpm. Then, the layer of octanol was separated from glass vial. The final absorbance (Af) of each compound was recorded by using the buffer layer. The values of P for compounds were determined by the following equation (Eq. 8):8 P=Ai−Af/Af×Vw/Vo

SNB-19 = test: NCI cytotoxicity screen, CNS Cancer panel; assay type: cell-based; settings: Homo sapiens; SNB-19; single dose 10 µM; negative = lethal; read-out: Percent growth inhibition
Protocol: as §1

U251 = test: NCI cytotoxicity screen, CNS Cancer panel; assay type: cell-based; settings: Homo sapiens, U-251; U251; single dose 10 µM; negative = lethal; read-out: Percent growth inhibition
Protocol: as §1

SNB-75 = test: NCI cytotoxicity screen, CNS Cancer panel; assay type: cell-based; settings: Homo sapiens, single dose 10 µM, negative = lethal, read-out: Percent growth inhibition
Protocol: as §1

SF-268 = test: NCI cytotoxicity screen, CNS Cancer panel; assay type: cell-based; settings: Homo sapiens, single dose 10 µM, negative = lethal, read-out: Percent growth inhibition
Protocol: as §1

SF-295 = test: NCI cytotoxicity screen, CNS Cancer panel; assay type: cell-based; settings: Homo sapiens, single dose 10 µM, negative = lethal, read-out: Percent growth inhibition
Protocol: as §1

SF-539 = test: NCI cytotoxicity screen, CNS Cancer panel; assay type: cell-based; settings: Homo sapiens, single dose 10 µM, negative = lethal, read-out: Percent growth inhibition
Protocol: as §1

M14 = test: NCI cytotoxicity screen, Melanoma panel; assay type: cell-based, human; settings: Homo sapiens, single dose 10 µM, negative = lethal, read-out: Percent growth inhibition
Protocol: as §1

LOX IMVI = test: NCI cytotoxicity screen, Melanoma panel; assay type: cell-based, human; settings: Homo sapiens, single dose 10 µM, negative = lethal, read-out: Percent growth inhibition
Protocol: as §1

UACC-62 = test: NCI cytotoxicity screen, Melanoma panel; assay type: cell-based, human; settings: Homo sapiens, single dose 10 µM, negative = lethal, read-out: Percent growth inhibition
Protocol: as §1

MOLT-4 = test: NCI cytotoxicity screen, Leukemia panel; assay type: cell-based; settings: Homo sapiens, MOLT-4, MOLT-4; single dose 10 µM; negative = lethal; read-out: Percent growth inhibition
Protocol: as §1

K-562 = test: NCI cytotoxicity screen, Leukemia panel; assay type: cell-based; settings: Homo sapiens, K562; K-562; single dose 10 µM; negative = lethal; read-out: Percent growth inhibition
Protocol: as §1

SR = test: NCI cytotoxicity screen, Leukemia panel; assay type: cell-based; settings: Homo sapiens, single dose 10 µM, negative = lethal, read-out: Percent growth inhibition
Protocol: as §1

RPMI-8226 = test: NCI cytotoxicity screen, Leukemia panel; assay type: cell-based; settings: Homo sapiens; RPMI-8226; single dose 10 µM; negative = lethal; read-out: Percent growth inhibition
Protocol: as §1

CCRF-CEM = test: NCI cytotoxicity screen, Leukemia panel; assay type: cell-based; settings: Homo sapiens, single dose 10 µM, negative = lethal, read-out: Percent growth inhibition
Protocol: as §1

HL-60(TB) = test: NCI cytotoxicity screen, Leukemia panel; assay type: cell-based; settings: Homo sapiens, HL-60, HL-60(TB); single dose 10 µM; negative = lethal; read-out: Percent growth inhibition
Protocol: as §1

OVCAR-3 = test: NCI cytotoxicity screen, Ovarian Cancer panel; assay type: cell-based, human; settings: Homo sapiens; OVCAR-3; single dose 10 µM; negative = lethal; read-out: Percent growth inhibition
Protocol: as §1

For c1ccc(-c2cn3ccnc3c(-c3ccc4c(c3)ncn4C3CCCCC3)n2)cc1 [Compound 9, 8-(1-cyclohexyl-1H-benzo[d]imidazol-5-yl)-6-phenylimidazo[1,2-a]pyrazine], the inhibition at 10 µM (EXVX) was 2.51%, the inhibition at 10 µM (A549/ATCC) was 9% and the inhibition at 10 µM (HOP-92) was 10.9%. The inhibition at 10 µM (HOP-62) was 12.9%, the inhibition at 10 µM (NCI-H460) was under 1% and the inhibition at 10 µM (SK-MEL-5) was 5.71%. For the same compound, the inhibition at 10 µM (SK-MEL-28) was under 1%, the inhibition at 10 µM (SK-MEL-2) was under 1% and the inhibition at 10 µM (UACC-257) was under 1%. The inhibition at 10 µM (MDA-MB-435) was 0.53%, the inhibition at 10 µM (MALME-3M) was under 1% and the inhibition at 10 µM (NCI-H226) was under 1%. For the same compound, the inhibition at 10 µM (NCI-H23) was under 1%, the inhibition at 10 µM (NCI-H322M) was 2.91% and the inhibition at 10 µM (NCI-522) was 16.1%. The inhibition at 10 µM (PC-3) was 13.5%, the inhibition at 10 µM (DU-145) was 2.64% and the inhibition at 10 µM (RXF 393) was 23.3%. The inhibition at 10 µM (ACHN) was under 1%, the inhibition at 10 µM (UO-31) was 20.9% and the inhibition at 10 µM (A498) was under 1%. The inhibition at 10 µM (SN12C) was 4.83%, the inhibition at 10 µM (HT29) was 9.21% and the inhibition at 10 µM (HCT-116) was 3.81%. For the same compound, the inhibition at 10 µM (HCT-15) was 19.1%, the inhibition at 10 µM (COLO 205) was 0.28% and the logP [1] was 1.59. It also gave an inhibition at 10 µM (SNB-19) of 1.72%, an inhibition at 10 µM (U251) of 4.44% and an inhibition at 10 µM (SNB-75) of 5.65%. The inhibition at 10 µM (SF-268) was 1.33%, the inhibition at 10 µM (SF-295) was under 1% and the inhibition at 10 µM (SF-539) was 2.17%. For the same compound, the inhibition at 10 µM (M14) was 1.61%, the inhibition at 10 µM (LOX IMVI) was 4.86% and the inhibition at 10 µM (UACC-62) was 2.01%. The inhibition at 10 µM (MOLT-4) was 39.7%, the inhibition at 10 µM (K-562) was 31.1% and the inhibition at 10 µM (SR) was 44.6%. The inhibition at 10 µM (RPMI-8226) was 18.3%, the inhibition at 10 µM (CCRF-CEM) was 11.7% and the inhibition at 10 µM (HL-60(TB)) was 19.4%. It also gave an inhibition at 10 µM (OVCAR-3) of under 1%.
